{
  "source": "patent US20250221936A1",
  "about": "“ENGINEERED HEMICHANNELS, ENGINEERED VESICLES, AND USES THEREOF” (VIRGINIA TECH INTELLECTUAL PROPERTIES, INC., priority 2018, published 2025)",
  "key": {"[1]": {"molecular_target": "T1, Cx43 Y313-A348 peptide (Rattus norvegicus, UniProt P08050)", "T1 construct": "made in house; host or cells: chemical synthesis", "T1 sequence (P08050 with tags, fused parts or gaps)": "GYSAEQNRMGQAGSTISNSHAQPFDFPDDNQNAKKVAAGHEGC", "test": "SPR of captured aCT1 with Cx43 Y313-A348 peptide", "type": "binding", "details": "unlinked Cx43 Y313-A348 peptide (25 µM)", "method": "(§1) FIGS. 28A-28D. […] (FIG. 28B) Schematic representation of the Cx43 Y313-A348 peptide synthesized for a binding surface surrogate 1 with linkable cysteine (Cys) on the amino terminus and CT. (FIG. 28C) Single letter amino acid sequence of Cx43 Y313-A348 peptide with predicted helix secondary structure underlined. (FIG. 28D) Surface Plasmon Resonance (SPR) analysis of substrate captured aCT1 (700-1000 RUs) binding recombinant Cx43 CT (100 µM, light grey), unlinked Cx43 Y313-A348 peptide (25 µM, black), and disulfide linked Cx43 Y313-A348 (25 µM, dark grey). […] Disulfide cross-linking Cx43 Y313-A348 into a looped conformation results in a loss of aCT1 binding, thus aCT1 interaction with this peptide requires a degree conformational flexibility. Cx43 Y313-A348 peptide can provide an assay for screening for novel Cx43 interacting drugs.\n(§2) A […] peptide mimetic encompassing amino acids Y313 through A348 of the Cx43 CT was synthesized, containing the H1 and H2 a-helical regions (FIGS. 28A-28D). […] Cx43 Y313-A348 was designed to have cysteines at its NT and CT, which were used to disulfide cross-link the peptide into a cyclized conformation (FIG. 28B). […]"}, "[2]": {"tested_on": "Cx43 Y313-A348 peptide", "test": "SPR of captured aCT1 with Cx43 Y313-A348 peptide", "type": "binding", "details": "disulfide linked Cx43 Y313-A348 (25 µM)", "method": "as §1, §2"}, "[3]": {"tested_on": "4 mm long incisional skin injury", "details": "60 μM in 20% pluronic gel, cited from earlier work"}, "[4]": {"tested_on": "8 mm diameter round wound", "details": "cited from earlier work"}, "[5]": {"tested_on": "cryo-injured LV wall", "details": "cited from earlier work; for LV function: 8 week time course; for Cx43 in myocytes bordering the injury: mouse, in vivo; for arrhythmias: pacing and S1-S2 protocols"}, "[6]": {"tested_on": "cerebral lesion", "details": "100 μM in 2% collagen within HFM; cited from earlier work"}, "[7]": {"details": "aqueous solutions; cited from earlier work"}, "[8]": {"tested_on": "ARPE19 cell (immortalized human RPE cells) monolayers", "details": "pre-treatment, cited from earlier work"}, "[9]": {"tested_on": "silicone implants", "details": "days 1, 2, 3, 14, and 28; cited from earlier work"}, "[10]": {"tested_on": "C6 glioma cell line", "details": "cited from earlier work"}, "[11]": {"details": "0.05% Brij-78, corneal application, cited from earlier work; for peptide in aqueous humor / peptide in vitreous humor: 20 and 40 minutes"}, "[12]": {"tested_on": "choroidal neovascularization", "details": "mouse, in vivo; cited from earlier work"}, "[13]": {"tested_on": "silicone implant", "test": "Silicone implants coated with JM2", "type": "in vivo, rat", "details": "180 micomolar in 25% pluronic gel", "method": "25% pluronic F127 gel (Sigma-Aldrich, St. Louis, MO 63103), which is liquid at 4° C., but gels at 37° C., was used as a delivery vehicle for JM2 peptide. Pluronic gel has mild surfactant properties that aid in peptide dispersion. The JM2 peptide was reconstituted in IX PBS containing the 25% pluronic gel to a final concentration of 180 micomolar.\nAnimals were anesthetized with 2.75% isoflurane balance oxygen gas. After achievement of general anesthesia, the surgical site consisting of the animal's upper back was prepped by clipping fur down to skin and applying betadine scrub solution in triplicate. Sterile towels were draped to define the surgical field. PWAS Silicone sensors (5 mm diameter) were autoclave sterilized and warmed to 37° C. prior to implantation. For the treatment group, implants were dipped twice in JM2 pluronic solution prior to implantation. For the vehicle control group, the implants were dipped in saline only. This coating procedure produced an even coating of the implant. A muscle pocket was created under the latissimus dorsi muscle and implants were inserted. 50 μL of the corresponding solution was also injected into the muscle pocket prior to closure. The muscles were reapproximated with 4-0 Prolene (Ethicon Inc, Somerville, NJ 08876) and the skin closed with 4-0 Prolene and skin staples. […]"}, "[14]": {"tested_on": "Cx43-Hela cells", "details": "cited from earlier work"}, "[15]": {"molecular_target": "T2, Cx43 hemichannel (Homo sapiens, UniProt P17302)", "T2 construct": "expressed in transfected cells; host or cells: HeLa (Cx43-HeLa)", "T2 sequence (P17302 2-382 limits assumed)": "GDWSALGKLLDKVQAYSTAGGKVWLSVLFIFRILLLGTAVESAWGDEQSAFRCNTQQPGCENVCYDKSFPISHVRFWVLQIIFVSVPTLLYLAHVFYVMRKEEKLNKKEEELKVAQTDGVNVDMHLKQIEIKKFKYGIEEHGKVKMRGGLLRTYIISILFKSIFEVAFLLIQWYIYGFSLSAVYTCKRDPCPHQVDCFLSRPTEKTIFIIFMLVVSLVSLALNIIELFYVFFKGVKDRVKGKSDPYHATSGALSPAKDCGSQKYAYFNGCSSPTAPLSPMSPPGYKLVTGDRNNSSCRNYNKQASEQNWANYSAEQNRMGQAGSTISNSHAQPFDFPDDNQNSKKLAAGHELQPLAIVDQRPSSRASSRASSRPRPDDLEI", "details": "50 μM for 2 hrs; cited from earlier work"}, "[16]": {"tested_on": "silicon wafer implants", "details": "24 hours; cited from earlier work"}},
  "note": "Entries after “also recorded” stand apart in the source; their conditions may differ. Read-outs that look alike come from different tables or passages of the source.",
  "data": [
    {"sequence": "RQPKIWFPNRRKPWKKRPRPDDLEI [alpha CT1]", "values": [
      {"measurement": "SPR interaction", "setting": "[1]", "result": "levels of interaction with aCT1 comparable to the full Cx43 CT sequence"},
      {"measurement": "SPR interaction", "setting": "[2]", "result": "complete loss of aCT1 binding"},
      {"measurement": "appearance of incisional injury", "setting": "[3]; at 7 days", "result": "smoother and less scarred appearance"},
      {"measurement": "appearance of incisional injury", "setting": "[3]; by 48 hours", "result": "significantly more closed, less inflamed, less swollen"},
      {"measurement": "scar size", "setting": "[4]; 150 μM peptide, collagen gel, 30 days", "result": "significantly (p<0.05) smaller than the controls"},
      {"measurement": "wound closure rate", "setting": "[4]; rat, in vivo", "result": "consistent significantly faster closure rates than the other 4 wounds"},
      {"measurement": "LV function", "setting": "[5]", "result": "sustained improvements in ventricular contractile performance over an 8-week study period"},
      {"measurement": "LV function", "setting": "[5]; listed as ACTI", "result": "significant improvement in LV diastolic and systolic function"},
      {"measurement": "Cx43 in myocytes bordering the injury", "setting": "[5]", "result": "reduced Cx43 GJ remodeling in injury border zone tissues"},
      {"measurement": "Cx43 in myocytes bordering the injury", "setting": "[5]; listed as ACTI", "result": "higher and more uniform, intercalated-disk-localized and pS368 phosphorylated Cx43"},
      {"measurement": "arrhythmias", "setting": "[5]", "result": "decreased propensity of the injured hearts to develop inducible arrhythmias"},
      {"measurement": "arrhythmias", "setting": "[5]; listed as ACTI", "result": "dramatically reduced (p<0.05) frequency and severity of arrhythmias"},
      {"measurement": "density of GFAP-positive astrocytes", "setting": "[6]", "result": "much lower density of GFAP-positive astrocytes"},
      {"measurement": "period of slow release of detectable levels of peptide", "setting": "[7]", "result": "at least 7 days"},
      {"measurement": "VEGF-induced deterioration of TER", "setting": "[8]", "result": "prevent VEGF-induced deterioration of TER"},
      {"measurement": "VEGF-induced deterioration of TER", "setting": "[8]; listed as ACTI", "result": "blocked by pre-treating the cells with the ACTI peptide"},
      {"measurement": "wound-healing and foreign body responses", "setting": "[9]", "result": "attenuating neutrophil infiltration, increasing vascularity of the capsule tissue, reducing type I collagen deposition around the implant, and reducing the continued presence of contractile myofibroblasts"},
      {"measurement": "adhesive properties", "setting": "[10]", "result": "did not change in response to peptide treatment"},
      {"measurement": "morphology", "setting": "[10]", "result": "altered morphology"},
      {"measurement": "peptide in aqueous humor", "setting": "[11]", "result": "detectable level of ACT1 in the internal fluids of the anterior chamber"},
      {"measurement": "peptide in vitreous humor", "setting": "[11]", "result": "Lower levels of ACT1 could also be detected"},
      {"measurement": "peptide in aqueous humor", "setting": "[11]; listed as ACTI", "result": "detectable level of ACTI in the internal fluids of the anterior chamber"},
      {"measurement": "peptide in vitreous humor", "setting": "[11]; listed as ACTI", "result": "Lower levels of peptide could also be detected"},
      {"measurement": "peptide in retinal pigment epithelial layer", "setting": "[11]", "result": "ACT1 was detectable in the retinal pigment epithelial layer"},
      {"measurement": "peptide in retinal pigment epithelial layer", "setting": "[11]; listed as ACTI", "result": "peptide was detectable in the retinal pigment epithelial layer"},
      {"measurement": "CNV injury spread and retinal function (ERG)", "setting": "[12]", "result": "reduced CNV injury spread and improved retinal function"}
    ]},
    {"sequence": "VFFKGVKDRVKGRSD [JM2]", "values": [
      {"measurement": "healing, capsule formation, scarring and fibrosis", "setting": "[13]", "result": "improved healing and decreased capsule formation, scarring and fibrosis"},
      {"measurement": "inflammation and skeletal muscle necrosis", "setting": "[13]", "result": "decreased inflammation and reduced skeletal muscle necrosis"},
      {"measurement": "Cx43 GJ labeling", "setting": "[14]; 10 μM for 2, 6, and 24 hrs", "result": "displayed little GJ labeling; also recorded: GJ labeling began to return at 6 hrs, and appeared normal after 24 hrs"},
      {"measurement": "microtubule organization", "setting": "[14]; 2 hr", "result": "disruption of microtubule organization"},
      {"measurement": "hemichannel activity", "setting": "[15]", "result": "significantly reduced hemichannel activity"},
      {"measurement": "tissue reaction zone", "setting": "[16]", "result": "substantially narrower tissue reaction zone"}
    ]}
  ]
}
